Reference: ChEMBL document CHEMBL3259563, “The discovery of potent and selective non-steroidal glucocorticoid receptor modulators, suitable for inhalation” (Bioorg Med Chem Lett, 2014)
Values belong to the compound of their own block, whether it stands above or below them.

How the values were obtained:
Mus musculus [1] = experiment: Antiinflammatory activity in mouse acute cigarette smoke model assessed as inhibition of neutrophil influx to broncho-alveolar lavage fluid at 300 ug/kg, administered intratracheally 30 mins prior to first cigarette smoke challenge every day for 4 days measured after 24 hrs post last cigarette smoke challenge relative to control; conditions: inhaled or nasal
[2] = Lipophilicity, log D of the compound at pH 7.4; assay type: physicochemical; conditions: buffer
Glucocorticoid receptor = target: T1, Glucocorticoid receptor (Rattus norvegicus, UniProt P06536); experiment: Agonist activity at glucocorticoid receptor in rat PBMC assessed as inhibition of LPS-stimulated TNF-alpha release
T1 sequence (P06536 whole entry): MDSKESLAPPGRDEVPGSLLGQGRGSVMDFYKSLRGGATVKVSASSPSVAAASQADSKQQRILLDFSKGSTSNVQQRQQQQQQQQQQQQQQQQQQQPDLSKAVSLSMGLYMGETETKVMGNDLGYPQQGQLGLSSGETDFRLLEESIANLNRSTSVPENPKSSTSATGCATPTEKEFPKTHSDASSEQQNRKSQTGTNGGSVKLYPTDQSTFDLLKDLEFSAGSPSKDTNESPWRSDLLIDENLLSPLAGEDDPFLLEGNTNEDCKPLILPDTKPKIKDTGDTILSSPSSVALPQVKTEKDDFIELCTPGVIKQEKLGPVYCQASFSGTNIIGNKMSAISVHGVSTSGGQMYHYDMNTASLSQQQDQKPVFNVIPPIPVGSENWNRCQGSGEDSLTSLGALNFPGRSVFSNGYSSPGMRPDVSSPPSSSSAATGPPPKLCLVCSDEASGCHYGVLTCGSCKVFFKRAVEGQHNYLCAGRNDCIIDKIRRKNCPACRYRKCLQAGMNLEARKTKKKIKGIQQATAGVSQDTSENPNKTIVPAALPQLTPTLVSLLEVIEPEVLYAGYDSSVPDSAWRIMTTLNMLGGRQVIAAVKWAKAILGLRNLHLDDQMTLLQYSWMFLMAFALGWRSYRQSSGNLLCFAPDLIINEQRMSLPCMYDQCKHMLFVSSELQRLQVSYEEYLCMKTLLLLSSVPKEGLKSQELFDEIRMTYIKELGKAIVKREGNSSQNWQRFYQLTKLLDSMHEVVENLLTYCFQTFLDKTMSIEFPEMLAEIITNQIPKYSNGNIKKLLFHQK

Androgen receptor = target: T2, Androgen receptor (Homo sapiens, UniProt P10275); experiment: Binding affinity to androgen receptor (unknown origin)
T2 sequence (P10275 whole entry): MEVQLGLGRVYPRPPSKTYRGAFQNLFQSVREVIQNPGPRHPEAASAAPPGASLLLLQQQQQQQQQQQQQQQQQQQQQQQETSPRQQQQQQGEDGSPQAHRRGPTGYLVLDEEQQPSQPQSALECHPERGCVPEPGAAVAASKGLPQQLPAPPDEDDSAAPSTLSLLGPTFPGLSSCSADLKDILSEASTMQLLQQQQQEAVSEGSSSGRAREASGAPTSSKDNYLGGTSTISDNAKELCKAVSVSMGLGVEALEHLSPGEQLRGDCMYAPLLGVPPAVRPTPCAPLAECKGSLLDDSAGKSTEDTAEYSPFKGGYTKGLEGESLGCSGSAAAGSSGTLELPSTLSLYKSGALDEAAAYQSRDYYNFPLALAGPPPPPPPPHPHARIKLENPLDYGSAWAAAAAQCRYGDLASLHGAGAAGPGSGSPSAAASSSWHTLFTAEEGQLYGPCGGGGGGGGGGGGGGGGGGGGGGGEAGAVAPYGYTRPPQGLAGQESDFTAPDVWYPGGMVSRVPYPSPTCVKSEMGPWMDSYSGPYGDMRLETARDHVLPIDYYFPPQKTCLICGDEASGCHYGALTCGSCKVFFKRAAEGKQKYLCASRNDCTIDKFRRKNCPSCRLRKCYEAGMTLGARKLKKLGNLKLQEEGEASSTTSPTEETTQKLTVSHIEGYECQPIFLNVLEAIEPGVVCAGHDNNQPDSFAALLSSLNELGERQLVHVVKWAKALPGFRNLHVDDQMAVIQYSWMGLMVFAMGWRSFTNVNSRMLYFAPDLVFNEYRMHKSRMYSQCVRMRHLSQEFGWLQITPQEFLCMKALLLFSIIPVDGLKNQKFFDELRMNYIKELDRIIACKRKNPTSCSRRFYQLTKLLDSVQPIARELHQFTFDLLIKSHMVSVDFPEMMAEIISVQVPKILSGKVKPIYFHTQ

[3] = Thermodynamic solubility of the crystalline compound in 0.1 M phosphate buffer at pH 7.4 at 25 degC after 24 hrs; assay type: physicochemical; conditions: read-out: Therm_solubility
Plasma = experiment: Fraction unbound in human plasma; assay type: ADME, cell-free
Hepatocyte [4] = experiment: Intrinsic clearance in rat hepatocytes; assay type: ADME, cell-based
Hepatocyte [5] = experiment: Intrinsic clearance in human hepatocytes; assay type: ADME, cell-based
Cytochrome P450 2D6 = Cytochrome P450 2D6 (Homo sapiens, UniProt P10635); experiment: Inhibition of CYP2D6 (unknown origin); assay type: ADME
Chain of Cytochrome P450 2D6 (P10635 whole entry): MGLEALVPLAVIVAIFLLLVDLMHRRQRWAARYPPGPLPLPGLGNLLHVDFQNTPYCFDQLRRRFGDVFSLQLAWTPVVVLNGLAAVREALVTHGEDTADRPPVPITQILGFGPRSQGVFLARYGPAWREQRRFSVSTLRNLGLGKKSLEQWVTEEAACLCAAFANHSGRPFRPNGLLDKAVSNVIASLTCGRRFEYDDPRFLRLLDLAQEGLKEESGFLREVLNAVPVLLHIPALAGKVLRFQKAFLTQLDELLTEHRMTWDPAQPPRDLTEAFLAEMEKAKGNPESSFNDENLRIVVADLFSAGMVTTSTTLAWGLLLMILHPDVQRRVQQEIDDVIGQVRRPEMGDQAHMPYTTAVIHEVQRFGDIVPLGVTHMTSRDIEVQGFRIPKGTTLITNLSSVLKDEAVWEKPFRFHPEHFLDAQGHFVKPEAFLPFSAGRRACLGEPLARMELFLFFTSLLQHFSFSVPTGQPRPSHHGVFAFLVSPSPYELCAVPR

Cytochrome P450 1A2 = target: T3, Cytochrome P450 1A2 (Homo sapiens, UniProt P05177); experiment: Inhibition of CYP1A2 (unknown origin); assay type: ADME
T3 sequence (P05177 whole entry): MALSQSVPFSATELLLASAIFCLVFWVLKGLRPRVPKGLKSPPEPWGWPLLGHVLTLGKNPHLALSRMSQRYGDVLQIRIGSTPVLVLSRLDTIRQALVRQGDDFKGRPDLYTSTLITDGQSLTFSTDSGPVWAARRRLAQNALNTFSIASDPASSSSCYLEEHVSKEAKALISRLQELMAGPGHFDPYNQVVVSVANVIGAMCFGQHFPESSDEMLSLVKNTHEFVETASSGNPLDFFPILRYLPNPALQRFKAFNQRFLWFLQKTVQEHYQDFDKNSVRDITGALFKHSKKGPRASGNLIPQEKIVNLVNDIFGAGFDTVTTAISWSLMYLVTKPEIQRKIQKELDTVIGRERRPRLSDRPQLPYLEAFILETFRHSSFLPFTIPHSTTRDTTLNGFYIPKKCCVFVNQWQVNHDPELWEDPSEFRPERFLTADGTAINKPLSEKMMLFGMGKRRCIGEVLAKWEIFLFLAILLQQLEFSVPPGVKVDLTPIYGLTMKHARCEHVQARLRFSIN

Cytochrome P450 2C19 = Cytochrome P450 2C19 (Homo sapiens, UniProt P33261); experiment: Inhibition of CYP2C19 (unknown origin); assay type: ADME
Chain of Cytochrome P450 2C19 (P33261 whole entry): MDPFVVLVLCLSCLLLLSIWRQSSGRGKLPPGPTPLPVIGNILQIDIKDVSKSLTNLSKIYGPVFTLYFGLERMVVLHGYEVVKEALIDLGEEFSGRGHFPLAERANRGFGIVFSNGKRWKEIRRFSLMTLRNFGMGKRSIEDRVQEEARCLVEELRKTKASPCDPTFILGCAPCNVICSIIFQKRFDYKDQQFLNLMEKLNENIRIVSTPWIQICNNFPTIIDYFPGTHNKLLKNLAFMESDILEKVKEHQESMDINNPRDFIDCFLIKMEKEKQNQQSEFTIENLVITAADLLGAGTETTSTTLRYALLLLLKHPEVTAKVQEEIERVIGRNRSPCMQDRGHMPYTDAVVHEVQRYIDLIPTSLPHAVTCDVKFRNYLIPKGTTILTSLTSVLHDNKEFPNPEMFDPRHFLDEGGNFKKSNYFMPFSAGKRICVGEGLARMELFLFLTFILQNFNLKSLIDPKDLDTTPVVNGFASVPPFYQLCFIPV

Cytochrome P450 3A4 = Cytochrome P450 3A4 (Homo sapiens, UniProt P08684); experiment: Inhibition of CYP3A4 (unknown origin); assay type: ADME
Chain of Cytochrome P450 3A4 (P08684 whole entry): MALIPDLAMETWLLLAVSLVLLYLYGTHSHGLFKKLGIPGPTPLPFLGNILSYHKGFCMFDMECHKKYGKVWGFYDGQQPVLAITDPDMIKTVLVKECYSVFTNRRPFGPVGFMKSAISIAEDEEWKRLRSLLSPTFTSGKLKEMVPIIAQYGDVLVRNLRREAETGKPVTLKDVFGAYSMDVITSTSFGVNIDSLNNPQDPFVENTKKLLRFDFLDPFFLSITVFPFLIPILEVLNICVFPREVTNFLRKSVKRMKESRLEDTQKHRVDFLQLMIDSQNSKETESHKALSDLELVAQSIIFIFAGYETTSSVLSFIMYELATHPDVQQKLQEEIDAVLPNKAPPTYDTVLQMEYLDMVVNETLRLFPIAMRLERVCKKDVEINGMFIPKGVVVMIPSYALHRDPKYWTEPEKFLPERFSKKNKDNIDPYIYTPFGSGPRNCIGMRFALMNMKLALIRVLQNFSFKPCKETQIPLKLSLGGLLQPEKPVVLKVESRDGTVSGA

Cytochrome P450 2C9 = Cytochrome P450 2C9 (Homo sapiens, UniProt P11712); experiment: Inhibition of CYP2C9 (unknown origin); assay type: ADME
Chain of Cytochrome P450 2C9 (P11712 whole entry): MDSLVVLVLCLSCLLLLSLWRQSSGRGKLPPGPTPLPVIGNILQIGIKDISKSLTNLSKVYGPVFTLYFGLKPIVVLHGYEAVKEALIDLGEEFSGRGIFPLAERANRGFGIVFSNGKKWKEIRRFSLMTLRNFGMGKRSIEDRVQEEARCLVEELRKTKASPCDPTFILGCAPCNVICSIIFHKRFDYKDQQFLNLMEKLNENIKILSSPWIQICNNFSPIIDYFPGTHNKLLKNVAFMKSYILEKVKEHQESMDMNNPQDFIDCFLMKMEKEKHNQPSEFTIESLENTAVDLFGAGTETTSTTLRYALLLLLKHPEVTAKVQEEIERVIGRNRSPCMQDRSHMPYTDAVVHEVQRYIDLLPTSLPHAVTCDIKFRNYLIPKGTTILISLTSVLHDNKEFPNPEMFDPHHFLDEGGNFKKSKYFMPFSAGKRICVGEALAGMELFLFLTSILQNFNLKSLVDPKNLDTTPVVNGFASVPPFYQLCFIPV

Lung = experiment: Drug uptake in intratracheally dosed rat lung after 24 hrs; assay type: ADME, organism-based; conditions: in vivo, inhaled_or_intranasal
Rattus norvegicus [6] = experiment: Antiinflammatory activity in rat assessed as inhibition of LPS-induced leukocyte influx to broncho-alveolar lavage fluid at 10 ug/kg, administered intratracheally 2 hrs prior to LPS challenge measured after 4 hrs relative to control; assay type: functional; conditions: inhaled or nasal
Rattus norvegicus [7] = experiment: Antiinflammatory activity in rat assessed as inhibition of LPS-induced leukocyte influx to broncho-alveolar lavage fluid at 30 ug/kg, administered intratracheally 2 hrs prior to LPS challenge measured after 4 hrs relative to control; assay type: functional; conditions: inhaled or nasal
Rattus norvegicus [8] = experiment: Antiinflammatory activity in rat assessed as inhibition of LPS-induced leukocyte influx to broncho-alveolar lavage fluid at 100 ug/kg, administered intratracheally 2 hrs prior to LPS challenge measured after 4 hrs relative to control; assay type: functional; conditions: inhaled or nasal
Rattus norvegicus [9] = experiment: Antiinflammatory activity in rat assessed as inhibition of LPS-induced lung edema at 10 ug/kg, administered intratracheally 2 hrs prior to LPS challenge measured after 4 hrs relative to control; assay type: functional; conditions: inhaled or nasal
Rattus norvegicus [10] = experiment: Antiinflammatory activity in rat assessed as inhibition of LPS-induced lung edema at 30 ug/kg, administered intratracheally 2 hrs prior to LPS challenge measured after 4 hrs relative to control; assay type: functional; conditions: inhaled or nasal
Rattus norvegicus [11] = experiment: Antiinflammatory activity in rat assessed as inhibition of LPS-induced lung edema at 100 ug/kg, administered intratracheally 2 hrs prior to LPS challenge measured after 4 hrs relative to control; assay type: functional; conditions: inhaled or nasal
[12] = Thermodynamic solubility of the amorphous compound in 0.1 M phosphate buffer at pH 7.4 at 25 degC after 24 hrs; assay type: physicochemical; conditions: read-out: Therm_solubility
hERG (KCNH2) = hERG (KCNH2) (Homo sapiens, UniProt Q12809); experiment: Inhibition of human ERG channel at 50 uM
Chain of hERG (KCNH2) (Q12809 whole entry): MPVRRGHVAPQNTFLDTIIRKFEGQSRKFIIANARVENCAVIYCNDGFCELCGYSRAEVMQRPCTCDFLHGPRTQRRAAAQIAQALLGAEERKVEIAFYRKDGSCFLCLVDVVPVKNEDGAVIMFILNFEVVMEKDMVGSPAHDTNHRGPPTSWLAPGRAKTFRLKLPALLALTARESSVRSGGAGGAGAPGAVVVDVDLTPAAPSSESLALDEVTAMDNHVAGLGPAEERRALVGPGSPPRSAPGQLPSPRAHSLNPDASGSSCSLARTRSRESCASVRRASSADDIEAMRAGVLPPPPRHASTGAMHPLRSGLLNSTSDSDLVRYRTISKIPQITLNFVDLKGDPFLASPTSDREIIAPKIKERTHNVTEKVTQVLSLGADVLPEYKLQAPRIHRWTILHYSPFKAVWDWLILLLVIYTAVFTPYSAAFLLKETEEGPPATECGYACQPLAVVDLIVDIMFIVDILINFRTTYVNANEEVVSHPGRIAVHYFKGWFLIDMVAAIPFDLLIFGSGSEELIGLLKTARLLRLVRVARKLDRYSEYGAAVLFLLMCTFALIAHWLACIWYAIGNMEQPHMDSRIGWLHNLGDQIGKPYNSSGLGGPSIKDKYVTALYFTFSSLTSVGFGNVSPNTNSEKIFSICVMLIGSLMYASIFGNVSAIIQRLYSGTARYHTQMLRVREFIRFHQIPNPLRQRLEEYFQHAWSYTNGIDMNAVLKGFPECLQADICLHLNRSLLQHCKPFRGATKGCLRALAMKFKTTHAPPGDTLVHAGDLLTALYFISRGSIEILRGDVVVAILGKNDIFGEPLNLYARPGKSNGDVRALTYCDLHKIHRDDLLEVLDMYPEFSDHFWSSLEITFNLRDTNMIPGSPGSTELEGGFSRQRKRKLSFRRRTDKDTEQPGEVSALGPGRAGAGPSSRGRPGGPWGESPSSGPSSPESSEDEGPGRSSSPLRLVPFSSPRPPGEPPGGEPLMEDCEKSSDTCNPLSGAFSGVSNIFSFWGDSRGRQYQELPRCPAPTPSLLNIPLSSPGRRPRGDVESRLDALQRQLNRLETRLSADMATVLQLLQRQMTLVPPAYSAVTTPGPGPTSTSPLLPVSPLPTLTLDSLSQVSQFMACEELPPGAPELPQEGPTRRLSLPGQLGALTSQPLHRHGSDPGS

Mus musculus [13] = experiment: Antiinflammatory activity in mouse acute cigarette smoke model assessed as inhibition of neutrophil influx to broncho-alveolar lavage fluid at 10 ug/kg, administered intratracheally 30 mins prior to first cigarette smoke challenge every day for 4 days measured after 24 hrs post last cigarette smoke challenge relative to control; conditions: inhaled or nasal
Mus musculus [14] = experiment: Antiinflammatory activity in mouse acute cigarette smoke model assessed as inhibition of neutrophil influx to broncho-alveolar lavage fluid at 30 ug/kg, administered intratracheally 30 mins prior to first cigarette smoke challenge every day for 4 days measured after 24 hrs post last cigarette smoke challenge relative to control; conditions: inhaled or nasal
Mus musculus [15] = experiment: Antiinflammatory activity in mouse acute cigarette smoke model assessed as inhibition of neutrophil influx to broncho-alveolar lavage fluid at 100 ug/kg, administered intratracheally 30 mins prior to first cigarette smoke challenge every day for 4 days measured after 24 hrs post last cigarette smoke challenge relative to control; conditions: inhaled or nasal

SMILES: CCCC1O[C@@H]2C[C@H]3[C@@H]4CCC5=CC(=O)C=C[C@]5(C)[C@H]4[C@@H](O)C[C@]3(C)[C@]2(C(=O)CO)O1 (stereo not given in full) [BUDESONIDE]
inhibition in vivo at 0.3 mg/kg (Mus musculus [1]): 38%

logD [2]: 4.1 | IC50 (Glucocorticoid receptor): 0.9 nM | IC50 (Androgen receptor): > 1000 nM | solubility thermodynamic at 24 h [3]: < 0.2 µM | Fu (Plasma): < 0.003% | CLH (Hepatocyte [4]): 13 µL/min | CLH (Hepatocyte [5]): 18 µL/min | IC50 (Cytochrome P450 2D6): > 20 µM | IC50 (Cytochrome P450 1A2): > 20 µM | IC50 (Cytochrome P450 2C19): > 20 µM | IC50 (Cytochrome P450 3A4): 10 µM | IC50 (Cytochrome P450 2C9): 7.9 µM | Drug uptake (Lung): 50% | solubility thermodynamic at 24 h [12]: < 0.43 µM
SMILES: Cc1cc(C)c(S(=O)(=O)N[C@@H](C)CNc2cccc3c2cnn3-c2ccc(F)cc2)c(C)c1
inhibition in vivo at 0.01 mg/kg (Rattus norvegicus [6]): 37% | inhibition in vivo at 0.03 mg/kg (Rattus norvegicus [7]): 90% | inhibition in vivo at 0.1 mg/kg (Rattus norvegicus [8]): 85% | inhibition in vivo at 0.01 mg/kg (Rattus norvegicus [9]): 32% | inhibition in vivo at 0.03 mg/kg (Rattus norvegicus [10]): 42% | inhibition in vivo at 0.1 mg/kg (Rattus norvegicus [11]): 56% | inhibition at 50 µM (hERG (KCNH2)): < 25% | inhibition in vivo at 0.01 mg/kg (Mus musculus [13]): 0% | inhibition in vivo at 0.03 mg/kg (Mus musculus [14]): 36% | inhibition in vivo at 0.1 mg/kg (Mus musculus [15]): 23%
